Where “and” joins values, the source holds several entries; their conditions need not be identical. Identical values can stand only once. Where no end group is shown, it is not given here.
Test system: EV71
Test: Inhibitory activity on EV71 in RD cells by CCK8 method
Format: cell-based, enterovirus 71 (EV71)
Conditions: for IC50: EV71 in RD cells, CCK8 method; for Inhibition rate on EV71 virus (%): RD cells, 0.1 MOI, 24 h, CCK8
Protocol: (1) RD cells were plated in a 96-well plate at 100 μL per well.
(2) When the cells grew to a confluence of 70%-80%, the DMEM medium containing 10% serum was replaced with a DMEM medium containing 2% serum.
(3) The polypeptide drug was gradiently diluted with the DMEM containing 2% FBS into concentrations of 0.15625 μM, 0.3125 μM, 0.625 μM, 1.25 μM, 2.5 μM, and 5 μM, and then added to a new 96-well plate at 100 μL per well, with 3 replicate wells for each concentration.
(4) The diluted virus was added to the above wells at 100 μL per well. The wells with no drug and no virus added and the wells with no drug but virus added were set as controls respectively, with a final concentration of virus of 0.1 MOI.
(4) The mixture was transferred into the 96-well plate plated with cells for another 24 h of culture, and the inhibitory activity of the polypeptide on the virus was determined by a CCK8 kit.
(5) The inhibition rates of different concentrations of the polypeptides on virus infection were calculated according to a calculation formula of: inhibition rate of polypeptide=(well with drug-well with virus)×100%/(well with no drug-well with virus).
(3) The polypeptide drug was gradiently diluted with the DMEM containing 2% FBS into concentrations of 0.15625 μM, 0.3125 μM, 0.625 μM, 1.25 μM, 2.5 μM, and 5 μM, and then added to a new 96-well plate at 100 μL per well, with 3 replicate wells for each concentration. (4) The diluted virus was added to the above wells at 100 μL per well. The wells with no drug and no virus added and the wells with no drug but virus added were set as controls respectively, with a final concentration of virus of 0.1 MOI.

Molecule | IC50 [nM] | Inhibition rate on EV71 virus (%) (polypeptide 0.15625 μM) | Inhibition rate on EV71 virus (%) (polypeptide 0.3125 μM) | Inhibition rate on EV71 virus (%) (polypeptide 0.625 μM) | Inhibition rate on EV71 virus (%) (polypeptide 1.25 μM) | Inhibition rate on EV71 virus (%) (polypeptide 2.5 μM) | Inhibition rate on EV71 virus (%) (polypeptide 5 μM)
CC[C@H](C)[C@H](NC(=O)[C@H](C)NC(=O)[C@H](CO)NC(=O)[C@H](CCCNC(=N)N)NC(=O)[C@H](CC(N)=O)NC(=O)[C@H](CC(N)=O)NC(=O)[C@H](Cc1ccc(O)cc1)NC(=O)[C@H](CCC(=O)O)NC(=O)CNC(=O)[C@H](CO)NC(=O)CNC(=O)[C@H](CCCNC(=N)N)NC(=O)[C@H](CCCNC(=N)N)NC(=O)[C@H](CCCNC(=N)N)NC(=O)[C@H](CCC(N)=O)NC(=O)[C@H](CCCNC(=N)N)NC(=O)[C@H](CCCNC(=N)N)NC(=O)[C@H](CCCCN)NC(=O)[C@H](CCCCN)NC(=O)[C@H](CCCNC(=N)N)NC(=O)CNC(=O)[C@@H](N)Cc1ccc(O)cc1)C(=O)NCC(=O)N[C@@H](CC(N)=O)C(=O)N[C@H](C(=O)N[C@H](C(=O)N[C@@H](CCC(=O)O)C(=O)N[C@@H](C)C(=O)N[C@@H](CC(C)C)C(=O)N[C@@H](Cc1ccccc1)C(=O)N[C@@H](CCC(N)=O)C(=O)O)[C@@H](C)CC)[C@@H](C)O [EQ] | 1830 | 6.885% and 4.675% and 10.9434% | 10.2126% and 12.8194% and 16.4536% | 21.5745% and 20.64% and 25.9399% | 31.5814% and 30.7778% and 32.9503% | 62.8263% and 54.1779% and 55.7124% | 86.8541% and 90.3885% and 78.0023%
CC[C@H](C)[C@H](NC(=O)[C@H](C)NC(=O)[C@H](CO)NC(=O)[C@H](CCCNC(=N)N)NC(=O)[C@H](CC(N)=O)NC(=O)[C@H](CC(N)=O)NC(=O)CNC(=O)[C@H](CO)NC(=O)CNC(=O)[C@H](CCCNC(=N)N)NC(=O)[C@H](CCCNC(=N)N)NC(=O)[C@H](CCCNC(=N)N)NC(=O)[C@H](CCC(N)=O)NC(=O)[C@H](CCCNC(=N)N)NC(=O)[C@H](CCCNC(=N)N)NC(=O)[C@H](CCCCN)NC(=O)[C@H](CCCCN)NC(=O)[C@H](CCCNC(=N)N)NC(=O)CNC(=O)[C@@H](N)Cc1ccc(O)cc1)C(=O)NCC(=O)N[C@@H](CC(N)=O)C(=O)N[C@H](C(=O)N[C@H](C(=O)N[C@@H](CCC(=O)O)C(=O)N[C@@H](C)C(=O)N[C@@H](CC(C)C)C(=O)N[C@@H](Cc1ccccc1)C(=O)N[C@@H](CCC(N)=O)C(=O)O)[C@@H](C)CC)[C@@H](C)O [NQ] | 1900 | 4.278% and 5.368% and 8.337% | 11.5056% and 17.809% and 19.7228% | 16.7886% and 21.2091% and 24.9365% | 41.6538% and 40.8779% and 50.5607% | 51.933% and 60.1502% and 57.7744% | 60.6122% and 74.6708% and 75.3331%
CC[C@H](C)[C@H](NC(=O)[C@H](C)NC(=O)[C@H](CO)NC(=O)[C@H](CCCNC(=N)N)NC(=O)CNC(=O)[C@H](CO)NC(=O)CNC(=O)[C@H](CCCNC(=N)N)NC(=O)[C@H](CCCNC(=N)N)NC(=O)[C@H](CCCNC(=N)N)NC(=O)[C@H](CCC(N)=O)NC(=O)[C@H](CCCNC(=N)N)NC(=O)[C@H](CCCNC(=N)N)NC(=O)[C@H](CCCCN)NC(=O)[C@H](CCCCN)NC(=O)[C@H](CCCNC(=N)N)NC(=O)CNC(=O)[C@@H](N)Cc1ccc(O)cc1)C(=O)NCC(=O)N[C@@H](CC(N)=O)C(=O)N[C@H](C(=O)N[C@H](C(=O)N[C@@H](CCC(=O)O)C(=O)N[C@@H](C)C(=O)N[C@@H](CC(C)C)C(=O)N[C@@H](Cc1ccccc1)C(=O)N[C@@H](CCC(N)=O)C(=O)O)[C@@H](C)CC)[C@@H](C)O [RSQ] | 2600 | 1.471% and 6.588% and 2.826% | 11.34% and 21.2746% and 16.4228% | 18.633% and 25.8298% and 26.1918% | 40.5468% and 36.4575% and 35.2676% | 53.4848% and 40.7778% and 47.2122% | 58.6022% and 68.9642% and 62.4952%
CC[C@H](C)[C@H](NC(=O)[C@H](C)NC(=O)[C@H](CO)NC(=O)CNC(=O)[C@H](CO)NC(=O)CNC(=O)[C@H](CCCNC(=N)N)NC(=O)[C@H](CCCNC(=N)N)NC(=O)[C@H](CCCNC(=N)N)NC(=O)[C@H](CCC(N)=O)NC(=O)[C@H](CCCNC(=N)N)NC(=O)[C@H](CCCNC(=N)N)NC(=O)[C@H](CCCCN)NC(=O)[C@H](CCCCN)NC(=O)[C@H](CCCNC(=N)N)NC(=O)CNC(=O)[C@@H](N)Cc1ccc(O)cc1)C(=O)NCC(=O)N[C@@H](CC(N)=O)C(=O)N[C@H](C(=O)N[C@H](C(=O)N[C@@H](CCC(=O)O)C(=O)N[C@@H](C)C(=O)N[C@@H](CC(C)C)C(=O)N[C@@H](Cc1ccccc1)C(=O)N[C@@H](CCC(N)=O)C(=O)O)[C@@H](C)CC)[C@@H](C)O [SAQ] | 2900 | 3.547% and 2.726% and 6.819% | 8.964% and 7.902% and 11.0435% | 14.4055% and 11.5364% and 18.402% | 27.4779% and 24.0778% and 33.4848% | 47.0158% and 47.2468% and 36.2572% | 75.1367% and 61.8367% and 63.2191%
CC[C@H](C)[C@H](NC(=O)[C@H](C)NC(=O)[C@H](CO)NC(=O)[C@H](CCCNC(=N)N)NC(=O)[C@H](CC(N)=O)NC(=O)[C@H](CC(N)=O)NC(=O)[C@H](Cc1ccc(O)cc1)NC(=O)CNC(=O)[C@H](CO)NC(=O)CNC(=O)[C@H](CCCNC(=N)N)NC(=O)[C@H](CCCNC(=N)N)NC(=O)[C@H](CCCNC(=N)N)NC(=O)[C@H](CCC(N)=O)NC(=O)[C@H](CCCNC(=N)N)NC(=O)[C@H](CCCNC(=N)N)NC(=O)[C@H](CCCCN)NC(=O)[C@H](CCCCN)NC(=O)[C@H](CCCNC(=N)N)NC(=O)CNC(=O)[C@@H](N)Cc1ccc(O)cc1)C(=O)NCC(=O)N[C@@H](CC(N)=O)C(=O)N[C@H](C(=O)N[C@H](C(=O)N[C@@H](CCC(=O)O)C(=O)N[C@@H](C)C(=O)N[C@@H](CC(C)C)C(=O)N[C@@H](Cc1ccccc1)C(=O)N[C@@H](CCC(N)=O)C(=O)O)[C@@H](C)CC)[C@@H](C)O [YQ] | 1960 | 5.8298% and 7.33% and 11.0089% | 15.102% and 10.7124% and 13.3881% | 23.6157% and 20.9642% and 29.1606% | 30.9365% and 28.1124% and 32.0401% | 62.0331% and 53.8159% and 52.1987% | 80.0886% and 71.2711% and 87.578%
YGRKKRRQRRRGSGAIGNTIEALFQ [AQ] | 2990 | 9.888% and 7.506% and 5.9715% | 15.9607% and 11.702% and 12.6022% | 26.3573% and 23.7158% and 19.5264% | 33.3847% and 31.7366% and 38.7678% | 58.9642% and 46.161% and 41.3092% | 51.0435% and 51.8675% and 69.1952%
YGRKKRRQRRRGSGGNTIEALFQ [GQ] | 1780 | 7.219% and 10.3851% and 5.4678% | 14.8883% and 12.0678% and 14.91% | 28.8333% and 30.5125% and 26.48% | 43.1263% and 40.6161% and 31.07% | 51.8367% and 58.9472% and 57.2507% | 71.5094% and 77.9438% and 84.7439%
YGRKKRRQRRRGSGIEALFQ [IEQ] | 2480 | 11.724% and 8.44% and 7.627% | 18.8643% and 15.5487% and 10.6223% | 20.7161% and 25.7224% and 19.5166% | 33.6936% and 35.484% and 28.4286% | 45.6995% and 48.4526% and 57.4377% | 69.4739% and 61.3527% and 68.272%
YGRKKRRQRRRGSGIGNTIEALFQ [IQ] | 1640 | 12.0331% and 13.5849% and 7.368% | 18.7401% and 22.4297% and 22.9573% | 26.0539% and 31.1744% and 34.8606% | 41.6022% and 42.578% and 47.4848% | 55.7952% and 50.9781% and 60.5503% | 73.2884% and 68.7332% and 83.2884%
